The text below walks through data of patent US20230382889A1 (Volastra Therapeutics, Inc., priority 2022, published 2023).

Assay [1] has as its target hKIF18A (1-374) (Homo sapiens (Human), UniProt Q8NI77). The assay can be described thus: Inhibition of KIF18A microtubule-dependent ATPase activity (ADP-Glo). It counts as biochemical. The settings on record: 4 nM hKIF18A (1-374). An outline of the steps:
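Reaction was started with pre-formed microtubules and ATP (0.2 mg/mL and 2.0 mM in the added mix) and run 60 min at 28 °C. ADP was read by ADP-Glo luminescence, and IC50 came from a four-parameter fit of % inhibition.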

Assay [2] addresses KIF18a-microtubule complex (Homo sapiens (Human), UniProt Q8NI77). The assay can be described thus: Binding kinetics to KIF18a-microtubule complex (global progress curve analysis). The settings on record: for kon (on-rate from binding kinetics assay) / koff: KIF18A 0.25 nM, up to 24 hr; for koff: read-out: koff (off-rate from binding kinetics assay) (converted); for Ki: koff/kon, read-out: KI (determined from binding kinetic assay koff/kon). As for the experimental part:
Compound binding kinetics parameters (kon and koff) were determined by the method of global progress curve analysis (GPCA). […] ADP product levels were determined by the Promega® ADP-Glo assay.

Assay [3] has as its system HCC15 cells. In words: Cell viability of KIF18a-sensitive cell lines, HCC15 (Cell Titre-Glo, 7 days). It counts as cell-based. The settings on record: 168 h; HCC15, 7 days; read-out: HCC15 IC50. The protocol:
(§1) Cell lines were seeded as follows 24 hours before compound treatment: HCC15 (Korean Cell Line Bank) 600 cell/well, 95 μL of RPMI-1640 media supplemented with 100 units/mL penicillin, 100 units/mL streptomycin and 10% FBS; NIH:OVCAR-3 (ATCC), 1000 cell/well, 95 μL of RPMI-1640 media supplemented with 100 units/mL penicillin, 100 units/mL streptomycin, 0.01 mg/mL bovine insulin, and 20% FBS; JIMT-1 (Addexbio) 1000 cell/well, 95 μL of DMEM media supplemented with 100 units/mL penicillin, 100 units/mL streptomycin, and 10% FBS.
(§2) Test compounds were added to cells in a 20× dilution scheme by adding 5 μL of serially diluted compound to the plate, and the treated cells were incubated for an additional 7 days in a 37° C., 5% CO2 incubator. DMSO was used as the negative control (0% effect), and wells omitting cells were used as the positive control (100% effect). The cells were incubated for seven days, and cell viability determined via the Promega Cell Titre-Glo® Assay kit. Luminescence units were converted to ATP concentrations via an ATP standard curve (10 point, 2-fold dilution from 5 uM). % Inhibition was calculated for each well as: ([max−min]−[test−min])/[max−min]. IC50 values were calculated from concentration vs. % Inhibition data via a four-parameter variable slope model.

The subject of assay [4] is JIMT-1 cells. The assay can be described thus: Cell viability of KIF18a-sensitive cell lines, JIMT-1 (Cell Titre-Glo, 7 days). It counts as cell-based. As to conditions: Homo sapiens, 168 h; JIMT-1, 7 days; read-out: JIMT-1 IC50. The protocol: as §1, §2
Assay [5] relates to NIH:OVCAR-3 cells. In words: Cell viability of KIF18a-sensitive cell lines, NIH:OVCAR-3 (Cell Titre-Glo, 7 days). The format is cell-based. As to conditions: Homo sapiens, OVCAR-3, 168 h; NIH:OVCAR3, 7 days; read-out: NIH:OVCAR3 IC50. As for the experimental part:
as §1, §2

hKIF18A (1-374), sequence (Q8NI77 1-374): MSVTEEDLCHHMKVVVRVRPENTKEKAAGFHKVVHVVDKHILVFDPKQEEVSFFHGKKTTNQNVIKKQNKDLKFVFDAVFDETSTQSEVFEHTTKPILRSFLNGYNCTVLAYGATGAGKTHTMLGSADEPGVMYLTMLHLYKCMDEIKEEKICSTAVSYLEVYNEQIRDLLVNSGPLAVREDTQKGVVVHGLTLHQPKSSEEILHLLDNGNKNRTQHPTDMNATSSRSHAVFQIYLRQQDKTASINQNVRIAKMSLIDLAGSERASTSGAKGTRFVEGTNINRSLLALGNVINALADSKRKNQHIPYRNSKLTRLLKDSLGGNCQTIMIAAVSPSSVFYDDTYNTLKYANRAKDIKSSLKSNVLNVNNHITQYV
KIF18a-microtubule complex, sequence (Q8NI77 1-374, one chain of several): as the sequence (Q8NI77 1-374) above

In the case of `CS(=O)(=O)Nc1ccc(-c2ncc(-c3cccc(N4CCOCC4)n3)[nH]2)c(N2CCC3(CC2)CC3)c1` [Compound 10, N-(4-(5-(6-morpholinopyridin-2-yl)-1H-imidazol-2-yl)-3-(6-azaspiro[2.5]octan-6-yl)phenyl)methanesulfonamide], in assay [1], the 50% inhibitory concentration (IC50) came to 9.2 nM. Further, in assay [2], the “kon (on-rate from binding kinetics assay)” value (from here on “kon”) came out at 4720 M⁻¹ s⁻¹, the off-rate (koff) is 6.67e-05 s⁻¹, the Ki was determined as 14 nM and the “disc. t1/2 (dissociation half-life ln(2)/koff)” value came to 2.9 h. Also, the IC50 in assay [3] came out at 120 nM. Moreover, in assay [4], the IC50 was found to be 130 nM. Further, the IC50 in assay [5] was 210 nM.

Regarding `O=S(=O)(CCO)Nc1ccc(-n2cc(-c3csc(N4CCC(F)(F)CC4)n3)nn2)c(N2CCC3(CC2)CC3)c1` [Compound 69, N-(4-(4-(2-(4,4-difluoropiperidin-1-yl)thiazol-4-yl)-1H-1,2,3-triazol-1-yl)-3-(6-azaspiro[2.5]octan-6-yl)phenyl)-2-hydroxyethane-1-sulfonamide], the 50% inhibitory concentration (IC50) in assay [1] was 6 nM; in assay [3] it was 29 nM; in assay [4], 38 nM; in assay [5], 32 nM. In addition, in assay [2], the “kon” value came out at 36100 M⁻¹ s⁻¹. Moreover, the koff in assay [2] is 1.94e-05 s⁻¹. For the same compound, the Ki in assay [2] was determined as 0.53 nM. Moreover, the “disc. t1/2 (dissociation half-life ln(2)/koff)” value in assay [2] came out at 9.9 h.

On to `CS(=O)(=O)Nc1ccc(-n2cc(-c3cccc(N4CCC(F)(F)CC4)n3)nn2)c(N2CCC3(CC2)CC3)c1` [Compound 11, N-(4-(4-(6-(4,4-difluoropiperidin-1-yl)pyridin-2-yl)-1H-1,2,3-triazol-1-yl)-3-(6-azaspiro[2.5]octan-6-yl)phenyl)methanesulfonamide], for which, in assay [1], the IC50 was 23 nM. In assay [2], the “kon” value came out at 36100 M⁻¹ s⁻¹, the koff is 4.44e-06 s⁻¹, the Ki was 0.13 nM and the “disc. t1/2 (dissociation half-life ln(2)/koff)” value is 43 h. The IC50 in assay [3] stood at 13 nM. Besides, the IC50 in assay [4] amounted to 9.1 nM. In assay [5], the IC50 is 23 nM.

For `O=S(=O)(CCO)Nc1ccc(-n2cc(-c3cccc(N4CCC(F)(F)CC4)n3)nn2)c(N2CCC3(CC2)CC3)c1` [Compound 45, N-(4-(4-(6-(4,4-difluoropiperidin-1-yl)pyridin-2-yl)-1H-1,2,3-triazol-1-yl)-3-(6-azaspiro[2.5]octan-6-yl)phenyl)-2-hydroxyethane-1-sulfonamide], inhibition in assay [1] was half-maximal at 6.6 nM (IC50). Further, in assay [2], the “kon” value turned out to be 30600 M⁻¹ s⁻¹, the off-rate constant (koff) is 6.67e-06 s⁻¹, the Ki is 0.21 nM and the “disc. t1/2 (dissociation half-life ln(2)/koff)” value was 28 h. The concentration for half-maximal inhibition (IC50) in assay [3] amounted to 3.9 nM. Besides, the concentration for half-maximal inhibition (IC50) in assay [4] is 6.9 nM. The half-inhibitory concentration (IC50) in assay [5] worked out at 5.5 nM.

In turn, `CS(=O)(=O)Nc1ccc(-n2cc(-c3cccc(N4CCC(F)(F)CC4)n3)nn2)c(N2CCCCC2)c1` [Compound 15, N-(4-(4-(6-(4,4-difluoropiperidin-1-yl)pyridin-2-yl)-1H-1,2,3-triazol-1-yl)-3-(piperidin-1-yl)phenyl)methanesulfonamide] returned a concentration for half-maximal inhibition (IC50) in assay [1] of 6.6 nM. Moreover, in assay [2], the “kon” value was determined as 21900 M⁻¹ s⁻¹, the off-rate (koff) was 1.14e-05 s⁻¹, the Ki was 0.52 nM and the “disc. t1/2 (dissociation half-life ln(2)/koff)” value was found to be 17 h. For the same compound, the half-inhibitory concentration (IC50) in assay [3] is 12 nM. Also, the concentration for half-maximal inhibition (IC50) in assay [4] was 12 nM. The half-inhibitory concentration (IC50) in assay [5] worked out at 18 nM.

`Cc1cc(-c2cn(-c3ccc(NS(=O)(=O)CCO)cc3N3CCCCC3)nn2)nc(N2CCC(F)(F)CC2)n1` [Compound 67, N-(4-(4-(2-(4,4-difluoropiperidin-1-yl)-6-methylpyrimidin-4-yl)-1H-1,2,3-triazol-1-yl)-3-(piperidin-1-yl)phenyl)-2-hydroxyethane-1-sulfonamide]: the IC50 in assay [1] stood at 22 nM; in assay [3], 51 nM; in assay [4], 66 nM; in assay [5] it was 47 nM. Moreover, the “kon” value in assay [2] came to 12200 M⁻¹ s⁻¹. For the same compound, the off-rate constant (koff) in assay [2] is 2.06e-05 s⁻¹. Also, the Ki in assay [2] was determined as 1.7 nM. Also, the “disc. t1/2 (dissociation half-life ln(2)/koff)” value in assay [2] came to 9.4 h.

In the case of `Cc1cc(-c2cn(-c3ccc(NS(=O)(=O)CCO)cc3N3CCCCC3)nn2)nc(N2CCC(F)(F)CC2)c1` [Compound 68, N-(4-(4-(6-(4,4-difluoropiperidin-1-yl)-4-methylpyridin-2-yl)-1H-1,2,3-triazol-1-yl)-3-(piperidin-1-yl)phenyl)-2-hydroxyethane-1-sulfonamide], half-maximal inhibition in assay [1] (IC50) was put at 12 nM. Further, in assay [2], the “kon” value amounted to 21900 M⁻¹ s⁻¹, the dissociation rate constant (koff) is 1.81e-05 s⁻¹, the Ki was determined as 0.82 nM and the “disc. t1/2 (dissociation half-life ln(2)/koff)” value turned out to be 11 h. Besides, in assay [3], the IC50 worked out at 28 nM. In assay [4], the IC50 came to 30 nM. For the same compound, the 50% inhibitory concentration (IC50) in assay [5] is 21 nM.

In assay [1], `CS(=O)(=O)Nc1ccc(-c2ncc(-c3cccc(N4CCC(F)(F)CC4)n3)[nH]2)c(N2CCC3(CC2)CC3)c1` [Compound 9, N-(4-(5-(6-(4,4-difluoropiperidin-1-yl)pyridin-2-yl)-1H-imidazol-2-yl)-3-(6-azaspiro[2.5]octan-6-yl)phenyl)methanesulfonamide] registered an IC50 of 21 nM. In assay [2], the “kon” value worked out at 6670 M⁻¹ s⁻¹, the koff is 5.83e-05 s⁻¹, the Ki is 8.7 nM and the “disc. t1/2 (dissociation half-life ln(2)/koff)” value is listed as 3.3 h. Moreover, the IC50 in assay [3] stood at 110 nM. In assay [4], the IC50 stood at 100 nM. Besides, the half-inhibitory concentration (IC50) in assay [5] worked out at 200 nM.

On to `O=S(=O)(CCO)Nc1ccc(-n2cc(-c3ccn(C4CCC(F)(F)CC4)n3)nn2)c(N2CCC3(CCC3)CC2)c1` [Compound 130, N-(4-(4-(1-(4,4-difluorocyclohexyl)-1H-pyrazol-3-yl)-1H-1,2,3-triazol-1-yl)-3-(7-azaspiro[3.5]nonan-7-yl)phenyl)-2-hydroxyethane-1-sulfonamide], for which the half-maximal inhibitory concentration (IC50) in assay [1] was 5 nM; in assay [3], 12 nM; in assay [4], 29 nM; in assay [5], 19 nM.

Usually IC50 stands for the midpoint of a concentration-inhibition curve. The term koff denotes the first-order rate constant of dissociation.
